Data: paper PMC7523975, “Alkaloids of Abuta panurensis Eichler: In silico and in vitro study of acetylcholinesterase inhibition, cytotoxic and immunomodulatory activities” (PLoS ONE, 2020)

What was measured:
[1] = molecular target: T1, acetylcholinesterase (AChE, TcAChE) (Tetronarce californica, UniProt P04058); test: Ellman colorimetric assay with commercial enzyme, […] nm; type: biochemical
[2] = molecular target: T1, acetylcholinesterase (AChE, TcAChE); test: Ellman colorimetric assay with commercial enzyme, […] nm (positive control); type: biochemical

T1 sequence (P04058 22-564): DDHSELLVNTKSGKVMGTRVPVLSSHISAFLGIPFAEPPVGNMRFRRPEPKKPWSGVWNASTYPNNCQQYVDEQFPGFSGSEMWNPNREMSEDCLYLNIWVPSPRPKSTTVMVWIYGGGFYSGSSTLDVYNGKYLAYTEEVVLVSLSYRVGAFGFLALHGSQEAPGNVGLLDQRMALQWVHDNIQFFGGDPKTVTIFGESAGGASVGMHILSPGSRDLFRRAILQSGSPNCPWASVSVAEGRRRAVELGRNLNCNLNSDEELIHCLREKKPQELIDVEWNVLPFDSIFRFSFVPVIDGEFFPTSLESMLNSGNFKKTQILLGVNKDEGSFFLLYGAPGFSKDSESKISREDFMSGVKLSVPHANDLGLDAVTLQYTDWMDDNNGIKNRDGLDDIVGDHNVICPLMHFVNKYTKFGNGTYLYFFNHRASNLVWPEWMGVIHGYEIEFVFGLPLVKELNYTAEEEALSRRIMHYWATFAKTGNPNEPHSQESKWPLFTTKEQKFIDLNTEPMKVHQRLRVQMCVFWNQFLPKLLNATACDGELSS

CN(CCCCNC(=O)/C=C/c1ccccc1)CCCNC(=O)/C=C/c1ccccc1 [compound 1, 5-N-methylmaytenine]
IC50 [1]: 19.6 µM

COC1=CC2CCNC3CC4(C=CC(=O)C=C4)C(=C1OC)C23 (stereo not drawn) [compound 2, stepharine]
IC50 [1]: 61.2 µM

CN(C)C(=O)Oc1cccc([N+](C)(C)C)c1 [neostigmine]
IC50 [2]: 3.72 µM
